This passage reports CRF1/CRF2 ratio, EC50 and Emax results from patent US12679878B2, “CRF2 receptor agonists and their use in therapy” (SANOFI, priority 2020, dated 2026).

A word on the EC50: it is the concentration that produces a half-maximal response. One may read the Emax as the greatest response seen or fitted, relative to the assay's reference.

Structures are written as SMILES. Starred links: 1 amine or outer side, 2 acyl side, 3 side chain; linkers in the order of their positions; H or OH if unused. Non-standard residues stand in square brackets, D forms with d. Residues, ends and D or L forms follow the SMILES beside them. Groups on a side chain read outwards from the residue. *: point of attachment. C16 diacid = O=C(O)CCCCCCCCCCCCCCC(=O)*; γGlu = O=C(O)[C@H](CCC(=O)[*:2])N[*:1]; Palmitoyl = CCCCCCCCCCCCCCCC(=O)*; Aib = CC(C)(N)C(=O)O

One experiment has as its target T1, CRF1R receptor (Homo sapiens, UniProt P34998).
T1 construct: host or cells: CHO-K1 clone 2
T1 sequence (P34998 24-415): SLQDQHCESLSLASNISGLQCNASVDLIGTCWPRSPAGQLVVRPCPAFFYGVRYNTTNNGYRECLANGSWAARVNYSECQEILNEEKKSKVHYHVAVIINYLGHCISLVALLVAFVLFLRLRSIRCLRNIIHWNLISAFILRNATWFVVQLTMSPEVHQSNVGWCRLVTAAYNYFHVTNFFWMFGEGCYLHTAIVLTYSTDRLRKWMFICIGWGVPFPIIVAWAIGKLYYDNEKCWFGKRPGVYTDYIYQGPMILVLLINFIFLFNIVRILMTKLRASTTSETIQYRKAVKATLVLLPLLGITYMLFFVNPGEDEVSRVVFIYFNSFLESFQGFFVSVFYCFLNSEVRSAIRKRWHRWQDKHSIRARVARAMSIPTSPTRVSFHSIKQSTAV
The experiment is described as follows: cAMP activity at anti-target CRF1R, CHO-K1 cell line clone 2 (Example 19.10). Format: cell-based. In outline: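 A CRF1R-overexpressing CHO-K1 line (clone 2) was grown in F12/10% FBS/G418 and frozen in aliquots before use. The cAMP assay followed the preceding procedure, with 100% activation defined by Sauvagine at 100 nM.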

The target of a further experiment is T2, human CRF2α receptor (Homo sapiens, UniProt Q13324).
T2 construct: expressed in transfected cells; host or cells: TeloHEAC
T2 sequence (Q13324 1-411): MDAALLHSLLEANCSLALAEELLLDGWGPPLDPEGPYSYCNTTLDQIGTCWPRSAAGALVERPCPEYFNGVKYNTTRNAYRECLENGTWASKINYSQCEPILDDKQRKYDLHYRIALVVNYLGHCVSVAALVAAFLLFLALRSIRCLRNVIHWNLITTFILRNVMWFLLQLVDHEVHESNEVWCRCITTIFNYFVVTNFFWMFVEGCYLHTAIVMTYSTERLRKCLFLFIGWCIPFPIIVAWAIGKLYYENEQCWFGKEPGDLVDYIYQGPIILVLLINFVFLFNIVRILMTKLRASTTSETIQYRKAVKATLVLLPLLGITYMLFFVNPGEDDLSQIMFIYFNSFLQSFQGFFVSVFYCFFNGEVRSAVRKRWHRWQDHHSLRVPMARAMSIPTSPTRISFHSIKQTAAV
The experiment in a line: cAMP agonism at human CRF2α receptor in TeloHEAC cells, FA modified peptides (Example 19.9). Format: cell-based. The note with it: 0% HSA, relative to urocortin 2. In outline:
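Efficacy and EC50 are referenced to 100 nM urocortin 2 as 100%, with cAMP measured as the 665/620 nm HTRF ratio after 1 h at room temperature. Compounds (0.5 mM DMSO stock, 16 twofold dilutions) acted 30 min at 37 °C on CRF2α-expressing TeloHEAC cells, buffer containing IBMX and 0% or 0.2% HSA.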

With `CCCCCCCCCCCCCCCC(=O)N[C@@H](CCC(=O)NCCCC[C@H](NC(=O)[C@H](CC(C)C)NC(=O)CNC(=O)[C@@H](NC(=O)[C@@H]1CCCN1C(=O)[C@H](NC(=O)[C@H](CC(=O)O)NC(=O)[C@H](CC(C)C)NC(=O)[C@H](CO)NC(=O)[C@H](CC(C)C)NC(=O)[C@@H](NC(=O)[C@@H](N)[C@@H](C)CC)C(C)C)C(C)C)[C@@H](C)CC)C(=O)N[C@@H](CCC(N)=O)C(=O)N[C@H](C(=O)N[C@@H](CC(C)C)C(=O)N[C@@H](CC(C)C)C(=O)N[C@@H](CCCCN)C(=O)N[C@@H](CCC(N)=O)C(=O)N[C@@H](CCC(=O)O)C(=O)N[C@@H](CCCNC(=N)N)C(=O)N[C@@H](CCC(N)=O)C(=O)N[C@@H](CCCCN)C(=O)N[C@@H](CCCCN)C(=O)NC(C)(C)C(=O)N[C@@H](CCCNC(=N)N)C(=O)N[C@@H](CCC(N)=O)C(=O)N[C@@H](CCC(N)=O)C(=O)N[C@@H](C)C(=O)N[C@@H](CCC(=O)O)C(=O)N[C@H](C(=O)N[C@@H](CC(N)=O)C(=O)N[C@@H](CCCCN)C(=O)N[C@@H](CCCNC(=N)N)C(=O)N[C@H](C(=O)N[C@@H](CC(C)C)C(=O)N[C@@H](CCC(=O)O)C(=O)N[C@@H](CCCNC(=N)N)C(=O)N[C@H](C(N)=O)C(C)C)[C@@H](C)CC)[C@@H](C)O)[C@@H](C)CC)C(=O)O` [compound 220] (H-IVLSLD[dV]PIGLK([γGlu-Palmitoyl])QILLKQERQKK[Aib]RQQAETNKRILERV-NH2; N-terminus assumed), on CRF1R receptor (ratio of CRF1 EC50 to CRF2 EC50), the CRF1/CRF2 ratio was 6. Besides, the EC50 on human CRF2α receptor came out at 1.48 nM.
As to `CC[C@H](C)[C@H](N)C(=O)N[C@H](C(=O)N[C@@H](CC(C)C)C(=O)N[C@@H](CO)C(=O)N[C@@H](CC(C)C)C(=O)N[C@@H](CC(=O)O)C(=O)N[C@@H](C(=O)N1CCC[C@H]1C(=O)N[C@H](C(=O)N[C@@H](CCCCN)C(=O)N[C@@H](CC(C)C)C(=O)N[C@@H](CCCCNC(=O)CC[C@H](NC(=O)CCCCCCCCCCCCCCC(=O)O)C(=O)O)C(=O)N[C@@H](CCC(N)=O)C(=O)N[C@@H](CCCCN)C(=O)N[C@@H](CC(C)C)C(=O)N[C@@H](CC(C)C)C(=O)N[C@@H](CCCCN)C(=O)N[C@@H](CCC(N)=O)C(=O)N[C@@H](CCC(=O)O)C(=O)N[C@@H](CCCNC(=N)N)C(=O)N[C@@H](CCC(N)=O)C(=O)N[C@@H](CCCNC(=N)N)C(=O)N[C@@H](CCCCN)C(=O)N[C@@H](CCC(=O)O)C(=O)N[C@@H](CCCNC(=N)N)C(=O)N[C@@H](CCC(=O)O)C(=O)N[C@@H](CCC(N)=O)C(=O)N[C@@H](C)C(=O)N[C@@H](CCC(=O)O)C(=O)N[C@@H](CCCCN)C(=O)N[C@@H](CC(N)=O)C(=O)N[C@@H](C)C(=O)N[C@@H](CCCNC(=N)N)C(=O)N[C@H](C(=O)N[C@@H](CC(C)C)C(=O)N[C@@H](C)C(=O)N[C@@H](CCCNC(=N)N)C(=O)N[C@H](C(N)=O)C(C)C)[C@@H](C)CC)[C@@H](C)O)C(C)C)C(C)C` [compound 221] (H-IVLSLD[dV]PTKLK([γGlu-C16 diacid])QKLLKQERQRKEREQAEKNARILARV-NH2; N-terminus assumed), the EC50 on CRF1R receptor (0% HSA, CRF1R CHO-K1 clone 2, read-out: EC50 [nM] 0% HSA) is > 100 nM; at human CRF2α receptor, 2.71 nM. Also, on CRF1R receptor (100% = Sauvagine at 100 nM, CRF1R CHO-K1 clone 2), the Emax was determined as 3.2%.
